Laboratory results taken from PubChem BioAssay AID1963427 (Molecular Pharmacology Branch, DTP, NCI, 2024).
Values joined by “and” are separate entries in the source; they are usually repeats but may differ in a detail not shown here. Equal entries are not always repeated.

Test system: 317291-083-R-J1-PDC complex spheroid growth
Test: Anticancer human tumor 317291-083-R-J1-PDC patient-derived soft tissue sarcoma cell line growth inhibition [Asc]
Conditions: for viability, T/C: stronger effect = lower value
Outline: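 Tumor cells were grown as complex spheroids with human endothelial cells (HUVEC) and human mesenchymal stem cells as stroma. Agents were tested alone and in combination, in half-log steps down from the clinical Cmax, or from 10 microM where Cmax was unknown.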
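Note: compound exposure lasted seven days after spheroids formed for three days.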
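Throughout, for viability, T/C: 100% = DMSO vehicle control wells.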

C=C(F)C(=O)N1CCN(c2nc(OCC3CCCN3C)nc3c2CCN(c2cccc4cccc(Cl)c24)C3)CC1CC#N (centres undefined) + Cc1c(S(C)(=O)=O)c(-c2cc(F)cc(N3CCN(c4ccc(NS(=O)(=O)c5ccc(NC(CCN6CCC(C(=O)OCCCP(=O)(O)O)CC6)CSc6ccccc6)c(S(=O)(=O)C(F)(F)F)c5)cc4)CC3)c2)c(-c2ccc(Cl)cc2)n1C(C)C
IC50 (curve of first compound, second compound 0.0316 µM): 1920 nM
IC50 (curve of first compound, second compound 0.1 µM): 1970 nM
IC50 (curve of first compound, second compound 0.316 µM): 1720 nM
IC50 (curve of first compound, second compound 1 µM): 1620 nM
IC50 (curve of first compound, second compound 3.16 µM): 1170 nM
IC50 (curve of first compound, second compound 10 µM): 1590 nM
viability, T/C (second compound 0.0316 µM, first compound 0.0316 µM): 105%
viability, T/C (second compound 0.0316 µM, first compound 0.1 µM): 105%
viability, T/C (second compound 0.0316 µM, first compound 0.316 µM): 85.2%
viability, T/C (second compound 0.0316 µM, first compound 1 µM): 83.2%
viability, T/C (second compound 0.0316 µM, first compound 3.16 µM): 25.8%
viability, T/C (second compound 0.0316 µM, first compound 10 µM): 0.54%
viability, T/C (second compound 0.1 µM, first compound 0.0316 µM): 113%
viability, T/C (second compound 0.1 µM, first compound 0.1 µM): 97%
viability, T/C (second compound 0.1 µM, first compound 0.316 µM): 86.2%
viability, T/C (second compound 0.1 µM, first compound 1 µM): 96.7%
viability, T/C (second compound 0.1 µM, first compound 3.16 µM): 17.6%
viability, T/C (second compound 0.1 µM, first compound 10 µM): 0.18%
viability, T/C (second compound 0.316 µM, first compound 0.0316 µM): 80.8%
viability, T/C (second compound 0.316 µM, first compound 0.1 µM): 90%
viability, T/C (second compound 0.316 µM, first compound 0.316 µM): 77.5%
viability, T/C (second compound 0.316 µM, first compound 1 µM): 87.1%
viability, T/C (second compound 0.316 µM, first compound 3.16 µM): 11.7%
viability, T/C (second compound 0.316 µM, first compound 10 µM): 0.14%
viability, T/C (second compound 1 µM, first compound 0.0316 µM): 87.5%
viability, T/C (second compound 1 µM, first compound 0.1 µM): 72.9%
viability, T/C (second compound 1 µM, first compound 0.316 µM): 76.8%
viability, T/C (second compound 1 µM, first compound 1 µM): 76.3%
viability, T/C (second compound 1 µM, first compound 3.16 µM): 13.7%
viability, T/C (second compound 1 µM, first compound 10 µM): 2.51%
viability, T/C (second compound 3.16 µM, first compound 0.0316 µM): 100%
viability, T/C (second compound 3.16 µM, first compound 0.1 µM): 69.9%
viability, T/C (second compound 3.16 µM, first compound 0.316 µM): 74.5%
viability, T/C (second compound 3.16 µM, first compound 1 µM): 58.6%
viability, T/C (second compound 3.16 µM, first compound 3.16 µM): 7.37%
viability, T/C (second compound 3.16 µM, first compound 10 µM): 0.24%
viability, T/C (second compound 10 µM, first compound 0.0316 µM): 96.5%
viability, T/C (second compound 10 µM, first compound 0.1 µM): 99.1%
viability, T/C (second compound 10 µM, first compound 0.316 µM): 96.7%
viability, T/C (second compound 10 µM, first compound 1 µM): 77.9%
viability, T/C (second compound 10 µM, first compound 3.16 µM): 8.59%
viability, T/C (second compound 10 µM, first compound 10 µM): 0.29%

O=C(c1ccc(F)c(F)c1Nc1ccc(I)cc1F)N1CC(O)([C@@H]2CCCCN2)C1
viability, T/C (compound 0.00316 µM): 97% and 91.5% and 98.6%
viability, T/C (compound 0.01 µM): 102% and 91.8% and 91%
viability, T/C (compound 0.0316 µM): 109% and 88.6% and 93.6%
viability, T/C (compound 0.1 µM): 94.1% and 119% and 117%
viability, T/C (compound 0.316 µM): 65.2% and 71.6% and 81.1%
viability, T/C (compound 1 µM): 19.6% and 18.1% and 25%
IC50 (curve of compound): 462 nM and 504 nM and 599 nM
